# ChEMBL document CHEMBL1201862, “PubChem BioAssay data set” (2004)
#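 Cells were grown in 96-well plates and exposed to each compound for 48 hours at five concentrations; endpoints were interpolated linearly between bracketing concentrations, or set to the highest concentration if not reached. GI50 marks 50% less growth.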 Active and inactive are the calls of the source. No stated cut-off is given here; in the data, active = GI50 up to about 1.1 µM and inactive = higher. Non-standard residues stand in square brackets, D forms with d. Residues, ends and D or L forms follow the SMILES beside them. ξ: configuration not given here. Pentanoyl(2-O,4-OH,5-Cl) = O=C(O)C(O)CC(O)CCl; Ile(3ξ) = CCC(C)[C@H](N)C(=O)O; NMeV = CN[C@H](C(=O)O)C(C)C; NMeA = CN[C@@H](C)C(=O)O; βAla = NCCC(=O)O
# What was measured:
# Test in all cases: NCI-60 cell line screen, 48 h
# T47D = system: T47D
# XF498 = system: XF498
# DLD-1 = system: DLD-1
# RXF 631 = system: RXF 631
# DMS-114 = system: DMS-114
# M19-MEL = system: M19-MEL
# SNB-78 = system: SNB-78
# LXFL 529 = system: LXFL 529
# BT-549 = system: BT-549
SMILES,GI50 (T47D),GI50 (XF498),GI50 (DLD-1),GI50 (RXF 631),GI50 (DMS-114),GI50 (M19-MEL),GI50 (SNB-78),GI50 (LXFL 529),GI50 (BT-549)
CCOP(=O)(CN=C(c1ccccc1)c1ccccc1)OCC,86.7 µM (inactive),–,–,–,–,–,–,–,–
C=CCOCCC(CC=C)C(=O)CC(=O)OC (stereo unspecified),–,> 100 µM (inactive),> 100 µM (inactive),–,–,–,–,–,–
CN1CC[C@]2(C)c3c(O)cccc3CC3CCCC1C32C (stereo partly specified),–,59.6 µM (inactive),> 100 µM (inactive),> 100 µM (inactive),> 100 µM (inactive),> 100 µM (inactive),> 100 µM (inactive),> 100 µM (inactive),–
O=c1c(-c2ccccc2)c2oc(c1-c1ccccc1)CS(=O)(=O)CCC2,–,5.97 µM (inactive),21.6 µM (inactive),–,39.5 µM (inactive),17 µM (inactive),–,17.7 µM (inactive),–
COc1ccc(/C=C2\C(=O)N(C(=O)c3ccc(NC(C)=O)cc3)N=C2C)cc1,–,> 100 µM (inactive),> 10 µM (inactive),–,> 100 µM (inactive),> 100 µM (inactive),> 100 µM (inactive),–,–
Cc1ccc(C#CS(=O)(=O)C(F)(F)F)cc1,–,> 100 µM (inactive),> 100 µM (inactive),–,> 100 µM (inactive),> 100 µM (inactive),> 100 µM (inactive),–,–
Oc1c(Br)ccc2cccnc12,1.51 µM (inactive),–,–,–,–,–,–,–,7.48 µM (inactive)
Cc1ccc(S(=O)(=O)N(C=O)N=C2CCN(Cc3ccccc3)CC2)cc1,–,> 100 µM (inactive),> 100 µM (inactive),> 100 µM (inactive),–,> 100 µM (inactive),> 100 µM (inactive),> 100 µM (inactive),–
CC(C(=O)NCCNC(=O)CCCC(=O)N(C)O)C(=O)NCCNC(=O)CCCC(=O)N(C)O,> 100 µM (inactive),–,–,–,–,–,–,–,–
O=[N+]([O-])c1cccc2nccc(NCC(O)CO)c12 (stereo unspecified),24.2 µM (inactive),–,–,–,–,–,–,–,14.2 µM (inactive)
N#CC1=C(O)NC(O)=C(C#N)C1c1c(Cl)cccc1Cl,–,61.4 µM (inactive),16.7 µM (inactive),–,18.8 µM (inactive),21.4 µM (inactive),26.2 µM (inactive),–,–
CCCCN(C(=O)c1ccccc1)C1CCC(=O)c2[nH]c3ccccc3c21 (stereo unspecified),26.9 µM (inactive),–,–,–,–,–,–,–,36.9 µM (inactive)
CC(C)CC(N)C(=O)NC(CNC(CCC(N)=O)C(=O)NC(CC(C)C)C(=O)NC(CC(C)C)C(=O)O)Cc1ccc2ccccc2c1 (stereo unspecified),–,–,–,–,–,–,–,–,> 10 µM (inactive)
Cn1nc(-c2ccccc2)c2c(/C=C/c3ccc(Cl)cc3)onc2c1=O,–,10.5 µM (inactive),46 µM (inactive),> 100 µM (inactive),> 100 µM (inactive),89.9 µM (inactive),–,39.9 µM (inactive),–
COc1ccc(C2c3cc4c(cc3OC(NCCO)C2C)OCO4)cc1 (stereo unspecified),30.3 µM (inactive),–,–,–,–,–,–,–,16.7 µM (inactive)
Cc1nn(C)c2c1C(=O)N(C)CC(=O)N2C,–,–,–,–,–,–,–,–,> 100 µM (inactive)
Nc1ccccc1S(=O)(=O)c1ccccc1,–,–,> 100 µM (inactive),> 100 µM (inactive),> 100 µM (inactive),> 100 µM (inactive),–,> 100 µM (inactive),–
"CCC(C)[C@@H]1NC(=O)[C@@H]2CCCN2C(=O)C(CC(O)CCl)OC(=O)CCNC(=O)[C@H](C)N(C)C(=O)[C@H](C(C)C)N(C)C1=O (stereo partly specified) (cyclo([Ile(3ξ)][NMeV][NMeA][βAla][Pentanoyl(2-O,4-OH,5-Cl)]P))",3.94 µM (inactive),–,–,–,–,–,–,–,> 100 µM (inactive)
CC(C)(C)C1=C(Br)C(Br)(C(C)(C)C)OP1(=O)c1ccccc1 (stereo unspecified),31.5 µM (inactive),–,–,–,–,–,–,–,–
CC(=O)OC1(C)C=CC(=O)C=C1,–,–,–,–,–,–,–,–,57.3 µM (inactive)
CC(C)(C)[Si](C)(C)OCC1OC(n2cc(F)c(=O)[nH]c2=O)CC1O[Si](C)(C)C(C)(C)C (stereo unspecified),1.11 µM (active),–,–,–,–,–,–,–,5.43 µM (inactive)
COc1c(-c2ccc3c(c2)OCO3)oc2cc3c(c(OC)c2c1=O)OCO3 [MELITERNATIN],16.2 µM (inactive),–,–,–,–,–,–,–,12.8 µM (inactive)

SMILES,GI50 (T47D),GI50 (XF498),GI50 (DLD-1),GI50 (RXF 631),GI50 (DMS-114),GI50 (M19-MEL),GI50 (SNB-78),GI50 (LXFL 529),GI50 (BT-549)
CN(C)CCCNC(=O)N/N=C/c1ccccc1,–,> 100 µM (inactive),> 100 µM (inactive),–,> 100 µM (inactive),> 100 µM (inactive),> 100 µM (inactive),–,–
O=C1CCCCC2N(C(c3ccccc3)c3ccccc3)CC[C@@]12c1ccccc1.O=C1CCCC[C@H]2N(C(c3ccccc3)c3ccccc3)CC[C@@]12c1ccccc1 (stereo partly specified),–,–,–,3.88 µM (inactive),5.19 µM (inactive),> 10 µM (inactive),> 10 µM (inactive),–,–
c1ccc2c(c1)NCc1cc3ccccc3nc1O2,–,> 100 µM (inactive),> 100 µM (inactive),–,99.5 µM (inactive),> 100 µM (inactive),> 100 µM (inactive),–,–
Nc1ccc(N(S(=O)(=O)c2ccccc2)S(=O)(=O)c2ccccc2)c(Cl)c1,48.1 µM (inactive),–,–,–,–,–,–,–,56.5 µM (inactive)
O=C(O)c1ccc(Nc2c3ccccc3nc3ccccc23)cc1,–,–,–,–,> 100 µM (inactive),66.7 µM (inactive),30.8 µM (inactive),–,–
CC(=O)SCCC1c2[nH]c3ccccc3c2CCN1O (stereo unspecified),–,–,> 100 µM (inactive),–,74.5 µM (inactive),> 100 µM (inactive),–,56.4 µM (inactive),–
CC(=O)O[C@H]1C[C@@H](OC(C)=O)[C@@](C)(O)[C@@H]2[C@@H](OC(C)=O)[C@@]3(O)[C@H](/C=C(/CCl)[C@H]4O[C@H]4[C@@H](OC(C)=O)[C@@]12C)OC(=O)[C@@H]3C,> 25 µM (inactive),–,–,–,–,–,–,–,> 25 µM (inactive)
COc1ccc2[nH]c3c(C)c4ccncc4c(C)c3c2c1,–,2.7 µM (inactive),0.123 µM (active),–,0.446 µM (active),–,2.69 µM (inactive),–,–
Cc1ccc(NC(=O)/C(=N/N(C)C)C(C2OC(=O)c3ccccc32)[N+](=O)[O-])cc1 (stereo unspecified),> 100 µM (inactive),–,–,–,–,–,–,–,> 100 µM (inactive)
CN(C)c1ccc(C2CC(=O)CC(c3ccc(N(C)C)cc3)C23C(=O)NC(=O)NC3=O)cc1 (stereo unspecified),> 25 µM (inactive),–,–,–,–,–,–,–,23 µM (inactive)
CC(=O)/C(=C\c1ccccc1O)C(=O)Nc1ccccc1C,–,13.9 µM (inactive),20.1 µM (inactive),–,24.3 µM (inactive),27.7 µM (inactive),23.4 µM (inactive),22.3 µM (inactive),–
C=CCC12CC(=O)C=C1CCC1(C2)OCCO1 (stereo unspecified),–,–,> 100 µM (inactive),> 100 µM (inactive),–,> 100 µM (inactive),> 100 µM (inactive),> 100 µM (inactive),–
CCOC(=O)c1c[nH]c2cc3c(cc2c1=O)CCS3(=O)=O.CCOC(=O)c1c[nH]c2ccc3c(c2c1=O)S(=O)(=O)CC3,–,> 100 µM (inactive),> 100 µM (inactive),–,> 100 µM (inactive),> 100 µM (inactive),> 100 µM (inactive),–,–
O=C1NC(=O)C(CCO)(c2ccccc2)C(=O)N1,–,> 68.4 µM (inactive),> 100 µM (inactive),–,> 100 µM (inactive),> 100 µM (inactive),> 100 µM (inactive),–,–
CC1=NN(C(=O)c2ccccc2O)C(=O)/C1=C/c1c(O)ccc2ccccc12,41.1 µM (inactive),4.86 µM (inactive),–,–,0.219 µM (active),0.46 µM (active),26.6 µM (inactive),1.72 µM (inactive),4.7 µM (inactive)
Nc1ccccc1Sc1ccc(Cl)cc1,–,–,34.6 µM (inactive),–,21.2 µM (inactive),23 µM (inactive),17 µM (inactive),38.2 µM (inactive),–
Cc1c(Cl)c(=O)oc2cc(OCC(=O)c3ccccc3)ccc12,> 100 µM (inactive),–,–,–,–,–,–,–,> 100 µM (inactive)
N#Cc1c(NC(=S)NC(=O)c2ccccc2)nc2c(c1-c1ccccc1)CCCC2,17.7 µM (inactive),–,–,–,–,–,–,–,30.5 µM (inactive)
O=C1C=C(Sc2ccccc2)c2nccc3c2c1nc1ccccc13,–,–,–,–,–,–,–,–,16 µM (inactive)
O=C/C(=C1/C=Cc2cc([N+](=O)[O-])ccc2S1)c1ccccc1,> 100 µM (inactive),–,–,–,–,–,–,–,–
O=C(Nc1ccccc1)OCCN=C1c2ccccc2C(Br)C(Br)c2ccccc21 (stereo unspecified),8.69 µM (inactive),–,–,–,–,–,–,–,–
CCC(=O)NC(NNS(=O)(=O)c1ccc(C)cc1)(C(F)(F)F)C(F)(F)F,96.8 µM (inactive),–,–,–,–,–,–,–,29.7 µM (inactive)
